The values below are quoted from earlier work in US11512068B2, “Process for the preparation of crystalline ridinilazole using acid addition salts” (Sandoz AG, priority 2017, dated 2022).

Data set [1] deals with Clostridium difficile. To be noted: treatment with ridinilazole.
For the next data set, the system named is clostridia. Particulars: phase 1 trial, oral.
For data set [2] the following is noted: phase 1 trial, oral.
Data set [3] has as its system Clostridium difficile.

With `c1cc(-c2nc3ccc(-c4ccc5nc(-c6ccncc6)[nH]c5c4)cc3[nH]2)ccn1` [Ridinilazole, 5,5′bis[2-(4-pyridinyl)-1H-benzimidazole]], the toxin production result in the data set with Clostridium difficile [1] is given as “decreased toxin production”. Further, in the data set on clostridia, the “selectivity for clostridia over other faecal bacteria” value is given as “specifically targets clostridia whilst sparing other faecal bacteria”. In addition, the tolerability result in data set [2] was “well tolerated”. Also, in the data set on Clostridium difficile [3], the post-antibiotic effect entry was “prolonged post-antibiotic effect”.
